Data set [1] is described as follows: Reaction of NBD-Cl with KO2: stopped-flow kinetics, absorbance and fluorescence calibration. In kind it is physicochemical.
The target in data set [2] is xanthine-xanthine oxidase reaction (Homo sapiens, UniProt P47989). Briefly: Superoxide measurement in the xanthine-xanthine oxidase reaction. In kind it is biochemical.
A short description of data set [3]: Redox activity by reaction with photo-excited dye under aerobic conditions (probe reduction at 470 nm and dye photo-bleaching). The note with it: for redox activity (electron donor or electron acceptor): conclusion from the photo-excited dye assay of the respective example. In kind it is physicochemical.
A short description of data set [4]: Redox activity of activators and inhibitors of membrane-bound transport proteins (overview statement). The note with it: activators and inhibitors of the sarcoplasmic reticulum calcium release channel; no reference given. The class given is physicochemical.
The conditions of data set [5]: modulators of L-type calcium channel, sodium channel, mitochondrial ATP-dependent potassium channel; references 1-3; cited from earlier work.
In data set [6] the test system is sarcoplasmic reticulum Ca^2+ release channel. The conditions noted are these: cited from earlier work.
[7] abbreviates: 10 μM erythrosin, 50 μM NBD-Cl, 80% dimethyl sulfoxide / 20% 1 mM Tris-HCl, pH 7.4, compound 200 μM (diethyl benzocaine 2 mM) vs control.
Where [8] appears, read: 10 μM methylene blue, 100 μM NADH, 50 μM NBD-Cl, 10 mM Tris-HCl in water, pH 7.4, doxorubicin 25 and 50 μM vs zero.

Read-outs that look alike come from different tables or passages of the source.

Sequence of xanthine-xanthine oxidase reaction (P47989 whole entry): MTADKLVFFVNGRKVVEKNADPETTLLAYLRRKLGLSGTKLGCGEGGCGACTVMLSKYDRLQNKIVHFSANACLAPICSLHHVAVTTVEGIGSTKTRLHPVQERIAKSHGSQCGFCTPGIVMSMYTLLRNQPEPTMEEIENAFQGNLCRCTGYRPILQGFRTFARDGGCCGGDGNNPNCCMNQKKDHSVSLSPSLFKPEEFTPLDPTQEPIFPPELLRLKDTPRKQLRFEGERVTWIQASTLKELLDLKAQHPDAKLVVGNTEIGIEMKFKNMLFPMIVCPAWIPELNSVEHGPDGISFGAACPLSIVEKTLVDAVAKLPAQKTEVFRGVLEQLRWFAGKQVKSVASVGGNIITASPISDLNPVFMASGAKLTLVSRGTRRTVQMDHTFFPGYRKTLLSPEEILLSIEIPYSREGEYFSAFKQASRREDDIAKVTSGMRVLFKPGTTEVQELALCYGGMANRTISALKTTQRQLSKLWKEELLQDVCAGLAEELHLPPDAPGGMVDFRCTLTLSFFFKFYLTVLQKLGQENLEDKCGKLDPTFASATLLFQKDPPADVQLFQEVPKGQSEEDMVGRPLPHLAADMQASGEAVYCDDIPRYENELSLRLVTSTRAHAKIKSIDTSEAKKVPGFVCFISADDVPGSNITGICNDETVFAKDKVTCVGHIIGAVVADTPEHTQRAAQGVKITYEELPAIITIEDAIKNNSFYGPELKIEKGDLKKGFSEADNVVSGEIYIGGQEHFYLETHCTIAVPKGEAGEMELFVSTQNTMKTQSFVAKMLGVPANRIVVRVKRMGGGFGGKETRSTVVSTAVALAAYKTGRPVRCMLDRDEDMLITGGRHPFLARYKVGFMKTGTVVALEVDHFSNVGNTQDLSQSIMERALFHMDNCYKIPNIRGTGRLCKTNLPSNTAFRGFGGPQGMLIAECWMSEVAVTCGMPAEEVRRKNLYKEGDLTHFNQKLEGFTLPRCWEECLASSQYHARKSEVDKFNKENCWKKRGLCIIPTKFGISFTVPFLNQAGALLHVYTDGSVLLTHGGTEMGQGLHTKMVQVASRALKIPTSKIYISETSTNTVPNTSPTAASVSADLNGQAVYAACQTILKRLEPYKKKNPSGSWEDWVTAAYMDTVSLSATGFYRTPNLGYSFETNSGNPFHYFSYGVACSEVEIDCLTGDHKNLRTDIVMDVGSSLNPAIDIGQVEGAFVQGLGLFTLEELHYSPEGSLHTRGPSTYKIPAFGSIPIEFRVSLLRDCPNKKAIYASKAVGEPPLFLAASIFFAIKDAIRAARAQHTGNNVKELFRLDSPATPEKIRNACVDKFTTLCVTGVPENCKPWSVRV

As to “2,3-bis(2-methoxy-4-nitro-5-sulphophenyl)-5-[(phenylamino)carbonyl]-2H-tetrazolium hydroxide [XTT]”, the “second-order rate constants for reduction by superoxide” value in data set [1] was 8.59±0.81×10^4 M^−1s^−1. For the same molecule, in data set [2], the “effect of the probe on the xanthine-xanthine oxidase reaction rate” value is given as “about a two-fold increase”. For the same molecule, the “Superoxide at 470 nm (initial rate of superoxide formation)” value in data set [2] (pH 7.4) is on record as 0.225 ± 0.010.

In the case of `COc1cc(-c2ccc(-n3nc(-c4ccccc4)n[n+]3-c3ccc([N+](=O)[O-])cc3)c(OC)c2)ccc1-n1nc(-c2ccccc2)n[n+]1-c1ccc([N+](=O)[O-])cc1` [NBT, nitroblue tetrazolium], in data set [2] (pH 7.4), the “Superoxide at 550 nm (initial rate of superoxide formation)” value was found to be 0.038 ± 0.002.

`CC[C@H]1[C@@H]2C[C@H]3[C@@H]4N(C)c5ccccc5[C@]45C[C@@H]([C@@H]2[C@H]5O)N3[C@@H]1O` [ajmalin]: in data set [3] (setting [7]), the “rate of NBD-Cl reduction (increasing absorbance at 470 nm)” value is recorded as “increased”. In addition, the “relative degree of electron donor activity” value in data set [3] (10 μM erythrosin, 50 μM NBD-Cl, 80% dimethyl sulfoxide, from level of increase of NBD-Cl reduction rate) was “stronger electron donor than diethyl benzocaine”. Also, in data set [3], the “redox activity (electron donor or electron acceptor)” value (shortened to “redox activity”) is recorded as “electron donors”.

Turning to `CC(C)COCC(CN(Cc1ccccc1)c1ccccc1)N1CCCC1` (stereo not shown) [bepridil], the “rate of XTT reduction (increasing absorbance at 470 nm)” value in data set [3] (10 μM eosin, 50 μM XTT, 1 mM Tris-HCl in water, pH 7.4, bepridil 20 and 200 μM vs zero) is “increased”. Also, the “redox activity” value in data set [3] is on record as “electron donor”.

In the case of `Cn1c(=O)c2c(ncn2C)n(C)c1=O` [caffeine], the “redox activity” value in data set [4] was “electron acceptors”.

As to `N[C@@H](CS)C(=O)O` [cysteine], the “redox activity” value in data set [4] was “electron donors”.

As for `N[C@@H](CSSC[C@H](N)C(=O)O)C(=O)O` [cystine], in data set [4], the “redox activity” value is on record as “electron acceptors”.

Consider `CN(C)C(=O)/N=N/C(=O)N(C)C` [diamide], for which the “redox activity” value in data set [4] is “electron acceptors”.

Consider `COc1cccc2c1C(=O)c1c(O)c3c(c(O)c1C2=O)C[C@@](O)(C(=O)CO)C[C@@H]3O[C@H]1C[C@H](N)[C@H](O)[C@H](C)O1` [doxorubicin], for which, in data set [4], the “redox activity” value is recorded as “electron acceptors”. Besides, in data set [3] (setting [8]), the “rate of NBD-Cl reduction (increasing absorbance at 470 nm)” value is “decreased” and the “rate of methylene blue bleaching (decreasing absorbance at 663 nm)” value is listed as “decreased”. Besides, the “redox activity” value in data set [3] is “electron acceptor”.

In the case of `N[C@@H](CCC(=O)N[C@@H](CS)C(=O)NCC(=O)O)C(=O)O` [glutathione], in data set [4], the “redox activity” value was “electron donors”.

Take `O=C1c2c(O)ccc(O)c2C(=O)c2c(NCCNCCO)ccc(NCCNCCO)c21` [mitoxantrone]: in data set [4], the “redox activity” value is on record as “electron acceptors”.

For the molecule `Oc1ccc(-c2[o+]c3cc(O)cc(O)c3cc2O)cc1` [pelargonidine], the “redox activity” value in data set [5] is “electron acceptor”.

With `CCN(CC)CCOC(=O)c1ccc(N)cc1` [procaine], the “redox activity” value in data set [4] is listed as “electron donors”.

For `CCCCNc1ccc(C(=O)OCCN(C)C)cc1` [tetracaine], the “redox activity” value in data set [4] and in data set [3] was “electron donors” throughout. Also, the “rate of NBD-Cl reduction (increasing absorbance at 470 nm)” value in data set [3] (setting [7]) was “increased”.

In the case of diethyl benzocaine, the “redox activity” value in data set [5] is reported as “electron donor”; in data set [3], “electron donors”. Moreover, in data set [3] (setting [7]), the “rate of NBD-Cl reduction (increasing absorbance at 470 nm)” value is recorded as “increased”.

Consider ryanodine, for which, in data set [6], the “concentrations at which it is a specific activator of the calcium release channel” value is 1 to 2 µM.

Source of the values: patent publication US8017401B2, “Method for determining redox activity and screening compounds based on redox activity” (State of Oregon acting by and through the State Board of …, priority 2005, dated 2011).
